Article PMC4541799 (Journal of ethnopharmacology, 2015)
Converted amounts (≈) assume the structure as drawn.

Assays:
[1] = tested on: SCC2095 (oral squamous cell carcinoma cell line); experiment: Anti-proliferation MTT assay in SCC2095 cell line; format: cell-based, human
[2] = tested on: SCC2095 cells; experiment: Cellular uptake / intracellular accumulation in SCC2095 cells; format: in vitro ADME, human; conditions: SCC2095 cells incubated with GS409, at different incubation time (2 or 4 hours)
[3] = tested on: Caco-2 cell monolayer; experiment: Transport study in Caco-2 cell culture model; format: in vitro ADME, human; conditions: translated from Caco-2 permeability; ref Artursson & Karlsson, 1991
[4] = SCC2095 cell line, MTT, 48 hours incubation

Structure (SMILES) | IC50 [1, 4] [µg/mL] | IC50 ([1]; Homo sapiens, 48 h) [µg/mL] | other results
CC1(C)O[C@H]2CC(=O)OC[C@]23[C@H]2CC[C@@]4(C)[C@H](c5ccoc5)OC(=O)[C@H]5O[C@]54[C@]2(C)[C@@H](O)C(=O)[C@@H]13 [Rutaevine, rutaevine] | >100 |  | 
CC1(C)OC(=O)C=C[C@]2(C)[C@H]3CC[C@@]4(C)[C@H](c5ccoc5)OC(=O)[C@H]5O[C@]54[C@]3(C)C(=O)C[C@@H]12 [Obacunone, obacunone] |  | > 100 | 
CC1(C)O[C@H]2CC(=O)OC[C@]23[C@H]2CC[C@@]4(C)[C@H](c5ccoc5)OC(=O)[C@H]5O[C@]54[C@]2(C)C(=O)C[C@@H]13 [Limonin, limonin] |  | > 100 | 
CC1=C2C(=O)O[C@@H](c3ccoc3)[C@]2(C)CCC1 [Fraxinellone, fraxinellone] |  | 28.6 (≈ 123 µM) | intracellular accumulation among the 9 components [2]: relatively high; absorption in the human intestine following oral administration [3]: more than 70%
O=c1[nH]cc(F)c(=O)[nH]1 [5-Fu (positive control), reference compound] | 28.61 (≈ 220 µM) |  | 
OC[C@H]1O[C@@H](Oc2ccc3c(c2)OC[C@H]2c4cc5c(cc4O[C@@H]32)OCO5)[C@H](O)[C@@H](O)[C@@H]1O [Trifolirhizin, trifolirhizin] |  | > 100 | 
O=C1CCC[C@@H]2[C@H]3CCCN4CCC[C@@H](CN12)[C@@H]34 [Matrine, matrine] |  | > 100 | 
Oc1ccc2c(c1)OC[C@H]1c3cc4c(cc3O[C@@H]21)OCO4 [Maackiain, maackiain] |  | 86.3 (≈ 304 µM) | intracellular accumulation among the 9 components [2]: relatively high
CC1(C)O[C@H]2CC(=O)OC[C@@]23C1=C(O)C(=O)[C@]1(C)[C@@H]3CC[C@@]2(C)[C@H](c3ccoc3)OC(=O)[C@H]3O[C@]321 [Evodol, evodol] | >100 |  | 
